The record followed here is patent publication US8158647B2, “Substituted pyrrolopyridines and pyrazolopyridines as kinase modulators” (SGX Pharmaceuticals, Inc., priority 2007, dated 2012).

Where only a bound is given, the exact number is not on record here.

Test [1] deals with T1, purified and unphosphorylated T315I Abl kinase domain (ABL_T315I_0P) (Mus musculus, UniProt P00520, T315I).
T1 construct: The c-Abl T3151 KD (kinase domain) was purified as follows; Met-Ser-Leu (vector-derived residues) (N); made in house; host or cells: E. coli BL21(DE3) strains (Codon+RIL, or pSA0145 for the lambda phosphatase co-expression plasmid)
T1 sequence (P00520 242-493 T315I limits assumed): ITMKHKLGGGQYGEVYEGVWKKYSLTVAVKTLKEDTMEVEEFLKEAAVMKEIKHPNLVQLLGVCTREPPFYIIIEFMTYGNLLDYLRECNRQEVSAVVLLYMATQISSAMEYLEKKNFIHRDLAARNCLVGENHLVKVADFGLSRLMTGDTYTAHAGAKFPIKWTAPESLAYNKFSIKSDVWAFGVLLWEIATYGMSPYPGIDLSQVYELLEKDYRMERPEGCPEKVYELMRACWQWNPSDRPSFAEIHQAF
The experiment in a line: c-Abl T315I (unphosphorylated kinase domain) pyruvate kinase/lactate dehydrogenase coupled enzyme assay. It counts as biochemical. Particulars: 10 μM ATP.

The next test addresses T2, ABL P210WT BAF3 cells (Homo sapiens, UniProt P00519).
T2 construct: ABL P210WT BAF3; fused on or other part: P11274 (Breakpoint cluster region protein)
The experiment in a line: 96-well XTT cell survival assay, BaF3 ABL P210WT. Type of test: cell-based. Particulars: ABL P210 WT, 72 hours, read-out: CELL BIO ABL P210WT BAF3 XTT (IC50). The essentials:
(§1)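 Ba/F3 cells in RPMI 1640 with 10% FBS (IL-3 medium for maintenance) were seeded at 5000-8000 cells/well and exposed to compound dilutions in duplicate for 72 h at 37° C. Viability read by XTT/PMS, absorbance 405 nm minus 650 nm after 2-6 h.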
Background: Tetrazolium dyes change colour on reduction, which living cells bring about.

The target of a further test is T3, ABL T315I BAF3 cells (Homo sapiens, UniProt P00519, T315I, cells depend on it).
T3 construct: ABL T315I BAF3; fused on or other part: P11274 (Breakpoint cluster region protein)
The experiment in a line: 96-well XTT cell survival assay, BaF3 ABL T315I. Type of test: cell-based. Particulars: 72 hours, read-out: CELL BIO ABL T315I BAF3 XTT (IC50). The essentials: as §1

Take `CN(C)C(=O)c1cncc(-c2cnc3[nH]cc(-c4ccccc4F)c3c2Cl)n1` [6-[4-Chloro-3-(2-fluoro-phenyl)-1H-pyrrolo[2,3-b]pyridin-5-y] [6-[4-Chloro-3-(2-fluoro-phenyl)-1H-pyrrolo[2,3-b]pyridin-5-yl]-pyrazine-2-carboxylic acid dimethylamide]: the “ABL_T315I_0P (IC50)” value in test [1] is reported as “D (<0.01 μM)”. Also, the GI50 on ABL P210WT BAF3 cells and at ABL T315I BAF3 cells was over 1000 nM in each case.
For `CN(C)C(=O)c1cncc(-c2cnc3[nH]cc(-c4ccc(F)cc4)c3c2Cl)n1` [6-[4-Chloro-3-(4-fluoro-phenyl)-1H-pyrrolo[2,3-b]pyridin-5-yl]-pyrazine-2-carboxylic acid dimethylamide], the “ABL_T315I_0P (IC50)” value in test [1] is given as “D (<0.01 μM)”. Also, the figures for the GI50 on ABL P210WT BAF3 cells and at ABL T315I BAF3 cells were 100 to 1000 nM and over 1000 nM, respectively.
For the molecule `COc1ccc(F)cc1-c1c[nH]c2ncc(-c3cncc(C(=O)N(C)C)n3)c(Cl)c12` [6-[4-Chloro-3-(5-fluoro-2-methoxy-phenyl)-1H-pyrrolo[2,3-b]pyridin-5-yl]-pyrazine-2-carboxylic acid dimethylamide], the “ABL_T315I_0P (IC50)” value in test [1] is “D (<0.01 μM)”. For the same molecule, the GI50 on ABL P210WT BAF3 cells and at ABL T315I BAF3 cells was 10 to 100 nM each time.
Consider `CN(C)C(=O)c1cncc(-c2cnc3[nH]cc(-c4ccccc4F)c3c2Cl)n1` [6-[4-chloro-3-(2-fluoro-phenyl)-1H-pyrrolo[2,3,b]pyridine-5-], for which, in test [1], the “ABL_T315I_0P (IC50)” value was “D (<0.01 μM)”. The GI50 on ABL P210WT BAF3 cells and on ABL T315I BAF3 cells was 100 to 1000 nM throughout.
On to `OC(c1cncc(-c2cnc3[nH]cc(-c4ccccc4)c3c2Cl)c1)c1ncccc1F` (stereo not drawn) [[5-(4-Chloro-3-phenyl-1H-pyrrolo[2,3-b]pyridin-5-yl)-pyridin-3-yl]-(3-fluoro-pyridin-2-yl)-methanol], for which, in test [1], the “ABL_T315I_0P (IC50)” value was “D (<0.01 μM)”. Besides, the GI50 at ABL P210WT BAF3 cells and on ABL T315I BAF3 cells was 100 to 1000 nM throughout.
For the molecule `CNc1c(Br)cnc2[nH]cc(-c3ccccc3OC)c12` [[5-Bromo-3-(2-methoxy-phenyl)-1H-pyrrolo[2,3-b]pyridin-4-yl]-methyl-amine], the “ABL_T315I_0P (IC50)” value in test [1] was “C (0.1-0.01 μM)”. Also, the GI50 at ABL P210WT BAF3 cells and on ABL T315I BAF3 cells was over 1000 nM each time.
Turning to `Nc1ncc(-c2cnc3[nH]cc(-c4cc(F)ccc4F)c3c2Cl)cc1C(=O)N1CCCC1CO` (stereo not drawn) [{2-Amino-5-[4-chloro-3-(2,5-difluoro-phenyl)-1H-pyrrolo[2,3-b]pyridin-5-yl]-pyridin-3-yl}-(2-hydroxymethyl-pyrrolidin-1-yl)-methanone], in test [1], the “ABL_T315I_0P (IC50)” value is given as “D (<0.01 μM)”. The GI50 on ABL P210WT BAF3 cells and at ABL T315I BAF3 cells was 100 to 1000 nM in each case.
`CN(C)C1CCN(C(=O)c2cc(-c3cnc4[nH]cc(-c5cc(F)ccc5F)c4c3Cl)cnc2N)C1` (stereo not drawn) [{2-Amino-5-[4-chloro-3-(2,5-difluoro-phenyl)-1H-pyrrolo[2,3-b]pyridin-5-yl]-pyridin-3-yl}-(3-dimethylamino-pyrrolidin-1-yl)-methanone]: the “ABL_T315I_0P (IC50)” value in test [1] is “D (<0.01 μM)”. For the same molecule, the GI50 at ABL P210WT BAF3 cells and on ABL T315I BAF3 cells was 100 to 1000 nM in each case.
As to `Nc1ncc(-c2cnc3[nH]cc(-c4cc(F)ccc4F)c3c2Cl)cc1C(=O)N1CC(O)C1` [{2-Amino-5-[4-chloro-3-(2,5-difluoro-phenyl)-1H-pyrrolo[2,3-b]pyridin-5-yl]-pyridin-3-yl}-(3-hydroxy-azetidin-1-yl)-methanone], the “ABL_T315I_0P (IC50)” value in test [1] was “D (<0.01 μM)”. In addition, the GI50 on ABL P210WT BAF3 cells and at ABL T315I BAF3 cells was 100 to 1000 nM each time.
Consider `Nc1ncc(-c2cnc3[nH]cc(-c4cc(F)ccc4F)c3c2Cl)cc1C(=O)N1CCOCC1` [{2-Amino-5-[4-chloro-3-(2,5-difluoro-phenyl)-1H-pyrrolo[2,3-b]pyridin-5-yl]-pyridin-3-yl}-morpholin-4-yl-methanone], for which the “ABL_T315I_0P (IC50)” value in test [1] is recorded as “D (<0.01 μM)”. Further, the GI50 at ABL P210WT BAF3 cells and at ABL T315I BAF3 cells was 100 to 1000 nM throughout.
For `COc1ccccc1-c1c[nH]c2ncc(-c3cnc(N)c(C(=O)N4CCOCC4)c3)c(Cl)c12` [{2-Amino-5-[4-chloro-3-(2-methoxy-phenyl)-1H-pyrrolo[2,3-b]pyridin-5-yl]-pyridin-3-yl}-morpholin-4-yl-methanone], the “ABL_T315I_0P (IC50)” value in test [1] was “D (<0.01 μM)”. Moreover, the GI50 at ABL P210WT BAF3 cells and at ABL T315I BAF3 cells was 100 to 1000 nM throughout.
For `Nc1ncc(-c2cnc3[nH]cc(-c4cccc(F)c4)c3c2Cl)cc1C(=O)N1CCCC1CO` (stereo not drawn) [{2-Amino-5-[4-chloro-3-(3-fluoro-phenyl)-1H-pyrrolo[2,3-b]pyridin-5-yl]-pyridin-3-yl}-(2-hydroxymethyl-pyrrolidin-1-yl)-methanone], the “ABL_T315I_0P (IC50)” value in test [1] is “D (<0.01 μM)”. Moreover, the GI50 on ABL P210WT BAF3 cells and at ABL T315I BAF3 cells was 100 to 1000 nM each time.
As for `CN(C)C1CCN(C(=O)c2cc(-c3cnc4[nH]cc(-c5cccc(F)c5)c4c3Cl)cnc2N)C1` (stereo not drawn) [{2-Amino-5-[4-chloro-3-(3-fluoro-phenyl)-1H-pyrrolo[2,3-b]pyridin-5-yl]-pyridin-3-yl}-(3-dimethylamino-pyrrolidin-1-yl)-methanone], the “ABL_T315I_0P (IC50)” value in test [1] is on record as “D (<0.01 μM)”. Further, the GI50 on ABL P210WT BAF3 cells and on ABL T315I BAF3 cells was 100 to 1000 nM in each case.
For the molecule `Nc1ncc(-c2cnc3[nH]cc(-c4cccc(F)c4)c3c2Cl)cc1C(=O)N1CC(O)C1` [{2-Amino-5-[4-chloro-3-(3-fluoro-phenyl)-1H-pyrrolo[2,3-b]pyridin-5-yl]-pyridin-3-yl}-(3-hydroxy-azetidin-1-yl)-methanone], in test [1], the “ABL_T315I_0P (IC50)” value is reported as “D (<0.01 μM)”. For the same molecule, the GI50 on ABL P210WT BAF3 cells and at ABL T315I BAF3 cells was 100 to 1000 nM each time.
`Nc1ncc(-c2cnc3[nH]cc(-c4cccc(F)c4)c3c2Cl)cc1C(=O)N1CCOCC1` [{2-Amino-5-[4-chloro-3-(3-fluoro-phenyl)-1H-pyrrolo[2,3-b]pyridin-5-yl]-pyridin-3-yl}-morpholin-4-yl-methanone]: the “ABL_T315I_0P (IC50)” value in test [1] is given as “D (<0.01 μM)”. For the same molecule, the GI50 at ABL P210WT BAF3 cells and on ABL T315I BAF3 cells was 10 to 100 nM throughout.
With `OC(c1cccc(-c2cnc3[nH]cc(-c4ccccc4F)c3c2Cl)c1)c1ncco1` (stereo not drawn) [{3-[4-Chloro-3-(2-fluoro-phenyl)-1H-pyrrolo[2,3-b]pyridin-5-yl]-phenyl}-oxazol-2-yl-methanol], the “ABL_T315I_0P (IC50)” value in test [1] is “D (<0.01 μM)”. Moreover, the GI50 at ABL P210WT BAF3 cells and at ABL T315I BAF3 cells was over 1000 nM each time.
As for `OC(c1cccc(-c2cnc3[nH]cc(-c4ccc(F)cc4)c3c2Cl)c1)c1ncco1` (stereo not drawn) [{3-[4-Chloro-3-(4-fluoro-phenyl)-1H-pyrrolo[2,3-b]pyridin-5-yl]-phenyl}-oxazol-2-yl-methanol], the “ABL_T315I_0P (IC50)” value in test [1] is listed as “C (0.1-0.01 μM)”. Also, the GI50 on ABL P210WT BAF3 cells and on ABL T315I BAF3 cells was over 1000 nM in each case.
`OC(c1cncc(-c2cnc3[nH]cc(-c4cccc(F)c4F)c3c2Cl)c1)c1ncccc1F` (stereo not drawn) [{5-[4-Chloro-3-(2,3-difluoro-phenyl)-1H-pyrrolo[2,3-b]pyridin-5-yl]-pyridin-3-yl}-(3-fluoro-pyridin-2-yl)-methanol]: in test [1], the “ABL_T315I_0P (IC50)” value is on record as “D (<0.01 μM)”. Moreover, the GI50 on ABL P210WT BAF3 cells and on ABL T315I BAF3 cells was 100 to 1000 nM in each case.
For the molecule `OC(c1cncc(-c2cnc3[nH]cc(-c4cccc(F)c4F)c3c2Cl)c1)C1CC1` (stereo not drawn) [{5-[4-Chloro-3-(2,3-difluoro-phenyl)-1H-pyrrolo[2,3-b]pyridin-5-yl]-pyridin-3-yl}-cyclopropyl-methanol], in test [1], the “ABL_T315I_0P (IC50)” value is reported as “D (<0.01 μM)”. The GI50 at ABL P210WT BAF3 cells and on ABL T315I BAF3 cells was 100 to 1000 nM throughout.
Take `Cn1nccc1C(O)c1cncc(-c2cnc3[nH]cc(-c4ccccc4F)c3c2Cl)c1` (stereo not drawn) [{5-[4-Chloro-3-(2-fluoro-phenyl)-1H-pyrrolo[2,3-b]pyridin-5-yl]-pyridin-3-yl}-(2-methyl-2H-pyrazol-3-yl)-methanol]: the “ABL_T315I_0P (IC50)” value in test [1] is given as “D (<0.01 μM)”. The GI50 on ABL P210WT BAF3 cells and at ABL T315I BAF3 cells was over 1000 nM in each case.
`OC(c1cncc(-c2cnc3[nH]cc(-c4ccccc4F)c3c2Cl)c1)c1ncco1` (stereo not drawn) [{5-[4-Chloro-3-(2-fluoro-phenyl)-1H-pyrrolo[2,3-b]pyridin-5-yl]-pyridin-3-yl}-oxazol-2-yl-methanol]: the “ABL_T315I_0P (IC50)” value in test [1] is on record as “D (<0.01 μM)”. In addition, the GI50 on ABL P210WT BAF3 cells and at ABL T315I BAF3 cells was 100 to 1000 nM each time.
In the case of `OC(c1cncc(-c2cnc3[nH]cc(-c4ccc(F)cc4)c3c2Cl)c1)c1ncccc1F` (stereo not drawn) [{5-[4-Chloro-3-(4-fluoro-phenyl)-1H-pyrrolo[2,3-b]pyridin-5-yl]-pyridin-3-yl}-(3-fluoro-pyridin-2-yl)-methanol], in test [1], the “ABL_T315I_0P (IC50)” value is “C (0.1-0.01 μM)”. Further, the GI50 on ABL P210WT BAF3 cells and at ABL T315I BAF3 cells was over 1000 nM in each case.
`COc1ccc(F)cc1-c1c[nH]c2ncc(-c3cncc(C(O)c4ncccc4F)c3)c(Cl)c12` (stereo not drawn) [{5-[4-Chloro-3-(5-fluoro-2-methoxy-phenyl)-1H-pyrrolo[2,3-b]pyridin-5-yl]-pyridin-3-yl}-(3-fluoro-pyridin-2-yl)-methanol]: in test [1], the “ABL_T315I_0P (IC50)” value is “D (<0.01 μM)”. Moreover, the GI50 on ABL P210WT BAF3 cells is under 10 nM; on ABL T315I BAF3 cells, 10 to 100 nM.
